Data on 52 molecules can be found in patent US12121524B2, “DNA-PK inhibitors” (VERTEX PHARMACEUTICALS INCORPORATED, priority 2018, dated 2024).

The target of the test is DNA-PK (Homo sapiens, UniProt P78527). Put plainly: DNA-PK inhibition assay (standard radiometric 33P-ATP kinase assay). The class given is biochemical. To be noted: 100 μM ATP, approx. 6 nM DNA-PK. The method, then:
Compounds were screened for their ability to inhibit DNA-PK kinase using a standard radiometric assay. Briefly, in this kinase assay the transfer of the terminal ^33P-phosphate in ^33P-ATP to a peptide substrate is interrogated. The assay was carried out in 384-well plates to a final volume of 50 μL per well containing approximately 6 nM DNA-PK, 50 mM HEPES (pH 7.5), 10 mM MgCl2, 25 mM NaCl, 0.01% BSA, 1 mM DTT, 10 μg/mL sheared double-stranded DNA (obtained from Sigma), 0.8 mg/mL DNA-PK peptide (Glu-Pro-Pro-Leu-Ser-Gln-Glu-Ala-Phe-Ala-Asp-Leu-Trp-Lys-Lys-Lys, obtained from American Peptide), and 100 μM ATP.
Accordingly, compounds of the invention were dissolved in DMSO to make 10 mM initial stock solutions. Serial dilutions in DMSO were then made to obtain the final solutions for the assay. A 0.75 μL aliquot of DMSO or inhibitor in DMSO was added to each well, followed by the addition of ATP substrate solution containing ^33P-ATP (obtained from Perkin Elmer). The reaction was started by the addition of DNA-PK, peptide and ds-DNA. After 45 min, the reaction was quenched with 25 μL of 5% phosphoric acid. The reaction mixture was transferred to MultiScreen HTS 384-well PH plates (obtained from Millipore), allowed to bind for one hour, and washed three times with 1% phosphoric acid. Following the addition of 50 μL of Ultima Gold™ high efficiency scintillant (obtained from Perkin Elmer), the samples were counted in a Packard TopCount NXT Microplate Scintillation and Luminescence Counter (Packard BioScience). The Ki values were calculated using Microsoft Excel Solver macros to fit the data to the kinetic model for competitive tight-binding inhibition.

`Cc1cnc2c(O[C@H]3CC[C@@H](Nc4ncccn4)CC3)cc(N3CCOCC3)cc2n1` [Compound 190] yielded a Ki of under 100 nM. In the case of `Cc1cnc2cc(N3CCOCC3)cc(O[C@H]3CC[C@@H](Nc4ncccn4)CC3)c2n1` [Compound 191], the Ki was under 100 nM. For `COc1cc(N[C@H]2CC[C@@H](Oc3cc(N4CCOCC4)cc4nccnc34)CC2)ncn1` [Compound 194], the inhibition constant (Ki) was under 100 nM.

Molecule `N#Cc1cccc(N[C@H]2CC[C@@H](Oc3cc(N4CCOCC4)cc4nccnc34)CC2)n1` [Compound 195] returned a Ki of under 100 nM. The figure for `Nc1ccc(N[C@H]2CC[C@@H](Oc3cc(N4CCOCC4)cc4nccnc34)CC2)nc1` [Compound 197] is under 100 nM. The figure for `CN1CCN(c2ccc(C(=O)N[C@H]3CC[C@@H](Oc4cc(N5CCOCC5)cc5nccnc45)CC3)nc2)CC1` [Compound 198] is under 100 nM; for `CN1CCN(c2ncc(C(=O)N[C@H]3CC[C@@H](Oc4cc(N5CCOCC5)cc5nccnc45)CC3)cn2)CC1` [Compound 199] it is under 100 nM; for `CN1CCN(c2ccc(C(=O)N[C@H]3CC[C@@H](Oc4cc(N5CCOCC5)cc5nccnc45)CC3)cc2F)CC1` [Compound 200] it is under 100 nM. Molecule `COC(=O)c1cccnc1N[C@H]1CC[C@@H](Oc2cc(N3CCOCC3)cc3nccnc23)CC1` [Compound 202] came in with a Ki of under 100 nM.

Molecule `N#Cc1nccc(N[C@H]2CC[C@@H](Oc3cc(N4CCOCC4)cc4nccnc34)CC2)n1` [Compound 203] registered a Ki of under 100 nM. The figure for `CNc1cc(N[C@H]2CC[C@@H](Oc3cc(N4CCOCC4)cc4nccnc34)CC2)ncn1` [Compound 205] is under 100 nM.

With `COc1ccc(N[C@H]2CC[C@@H](Oc3cc(N4CCOCC4)cc4nccnc34)CC2)nc1` [Compound 206], the Ki is under 100 nM. The figure for `N#Cc1ccnc(N[C@H]2CC[C@@H](Oc3cc(N4CCOCC4)cc4nccnc34)CC2)n1` [Compound 207] is under 100 nM; for `CCc1cnc(N[C@H]2CC[C@@H](Oc3cc(N4CCOCC4)cc4nccnc34)CC2)nc1` [Compound 208] it is under 100 nM. On to `CC(C)c1cnc(N[C@H]2CC[C@@H](Oc3cc(N4CCOCC4)cc4nccnc34)CC2)nc1` [Compound 209], for which the Ki is under 100 nM.

On to `O=C(O)c1ccnc(N[C@H]2CC[C@@H](Oc3cc(N4CCOCC4)cc4nccnc34)CC2)c1` [Compound 210], for which the Ki was under 100 nM. As to `CCOc1cc(N[C@H]2CC[C@@H](Oc3cc(N4CCOCC4)cc4nccnc34)CC2)ncn1` [Compound 215], the Ki was under 100 nM. With `COc1nc(Cl)cc(N[C@H]2CC[C@@H](Oc3cc(N4CCOCC4)cc4nccnc34)CC2)n1` [Compound 219] the figure was under 100 nM; with `COCc1cc(N[C@H]2CC[C@@H](Oc3cc(N4CCOCC4)cc4nccnc34)CC2)ncn1` [Compound 225], under 100 nM. With `CCOc1cnc(N[C@H]2CC[C@@H](Oc3cc(N4CCOCC4)cc4nccnc34)CC2)nc1` [Compound 233] the figure was under 100 nM; with `N#Cc1cc(N[C@H]2CC[C@@H](Oc3cc(N4CCOCC4)cc4nccnc34)CC2)ncn1` [Compound 234], under 100 nM; with `O[C@H](c1cnc(N[C@H]2CC[C@@H](Oc3cc(N4CCOCC4)cc4nccnc34)CC2)nc1)C(F)(F)F` [Compound 235], under 100 nM. `O[C@@H](c1cnc(N[C@H]2CC[C@@H](Oc3cc(N4CCOCC4)cc4nccnc34)CC2)nc1)C(F)(F)F` [Compound 236] showed a Ki of under 100 nM. The figure for `Cc1nc(N[C@H]2CC[C@@H](Oc3cc(N4CCOCC4)cc4nccnc34)CC2)ccc1C#N` [Compound 241] is under 100 nM; for `Cc1cc(C#N)cnc1N[C@H]1CC[C@@H](Oc2cc(N3CCOCC3)cc3nccnc23)CC1` [Compound 242] it is under 100 nM; for `CC(C)(O)c1cnc(N[C@H]2CC[C@@H](Oc3cc(N4CCOCC4)cc4nccnc34)CC2)nc1` [Compound 243] it is under 100 nM.

With `COc1cc(N[C@H]2CC[C@@H](Oc3cc(N4CCOCC4)cc4nccnc34)CC2)nc(OC)n1` [Compound 245], the inhibition constant (Ki) is under 100 nM.

In the case of `Cc1ccnc(N[C@H]2CC[C@@H](Oc3cc(N4CCOCC4)cc4nccnc34)CC2)n1` [Compound 246], the Ki is under 100 nM. The figure for `CC(C)Oc1cnc(N[C@H]2CC[C@@H](Oc3cc(N4CCOCC4)cc4nccnc34)CC2)nc1` [Compound 247] is under 100 nM. Turning to `c1ccc(N[C@H]2CC[C@@H](Oc3cc(N4CCOCC4)cc4nccnc34)CC2)nc1` [Compound 254], the Ki was under 100 nM.

The molecule `Cc1ccc(N[C@H]2CC[C@@H](Oc3cc(N4CCOCC4)cc4nccnc34)CC2)nc1` [Compound 256] displayed a Ki of under 100 nM. `COc1ccc(N[C@H]2CC[C@@H](Oc3cc(N4CCOCC4)cc4nccnc34)CC2)nn1` [Compound 260]: the Ki is under 100 nM. With `COCCNc1cc(N[C@H]2CC[C@@H](Oc3cc(N4CCOCC4)cc4nccnc34)CC2)ncn1` [Compound 263] the figure was under 100 nM; with `CC(C)(CO)Nc1ccnc(N[C@H]2CC[C@@H](Oc3cc(N4CCOCC4)cc4nccnc34)CC2)n1` [Compound 264], under 100 nM; with `Cc1cc(N[C@H]2CC[C@@H](Oc3cc(N4CCOCC4)cc4nccnc34)CC2)ncn1` [Compound 265], under 100 nM.

`c1cc(N[C@H]2CC[C@@H](Oc3cc(N4CCOCC4)cc4nccnc34)CC2)nc(C2CC2)n1` [Compound 267] displayed a Ki of under 100 nM. Take `COc1nccc(N[C@H]2CC[C@@H](Oc3cc(N4CCOCC4)cc4nccnc34)CC2)n1` [Compound 268]: the Ki was under 100 nM. The figure for `CN(C)c1nc(N[C@H]2CC[C@@H](Oc3cc(N4CCOCC4)cc4nccnc34)CC2)ncc1F` [Compound 269] is under 100 nM. With `c1cncc(N[C@H]2CC[C@@H](Oc3cc(N4CCOCC4)cc4nccnc34)CC2)c1` [Compound 272], the Ki is under 100 nM.

`c1cc(N[C@H]2CC[C@@H](Oc3cc(N4CCOCC4)cc4nccnc34)CC2)ccn1` [Compound 273] came in with a Ki of under 100 nM.

`Cc1nc(N[C@H]2CC[C@@H](Oc3cc(N4CCOCC4)cc4nccnc34)CC2)cc(N2CCN(C)CC2)n1` [Compound 275] came in with an inhibition constant (Ki) of under 100 nM. The figure for `COc1cc(C)nc(N[C@H]2CC[C@@H](Oc3cc(N4CCOCC4)cc4nccnc34)CC2)n1` [Compound 276] is under 100 nM; for `Fc1c(Cl)ncnc1N[C@H]1CC[C@@H](Oc2cc(N3CCOCC3)cc3nccnc23)CC1` [Compound 277] it is under 100 nM. With `C[C@H](CO)Nc1ncnc(N[C@H]2CC[C@@H](Oc3cc(N4CCOCC4)cc4nccnc34)CC2)c1F` [Compound 380] the figure was under 100 nM; with `COC(=O)c1cc(N[C@H]2CC[C@@H](Oc3cc(N4CCOCC4)cc4nccnc34)CC2)ncc1OC(C)(C)C` [Compound 407], under 100 nM. For `Cc1ccc(N[C@H]2CC[C@@H](Oc3cc(N4CCOCC4)cc4nccnc34)CC2)nn1` [Compound 450], the Ki was under 100 nM. With `COC(=O)c1cc(C)nc(N[C@H]2CC[C@@H](Oc3cc(N4CCOCC4)cc4nccnc34)CC2)n1` [Compound 565] the figure was under 100 nM.

The molecule `Cc1cnc(N[C@H]2CC[C@@H](Oc3cc(N4CCOCC4)cc4nccnc34)CC2)nc1N1CCCCC1` [Compound 567] had a Ki of under 100 nM. Regarding `COc1nc(C)nc(N[C@H]2CC[C@@H](Oc3cc(N4CCOCC4)cc4nccnc34)CC2)n1` [Compound 604], the inhibition constant (Ki) was under 100 nM. With `Clc1nc(N[C@H]2CC[C@@H](Oc3cc(N4CCOCC4)cc4nccnc34)CC2)nc(C2CC2)n1` [Compound 605] the figure was under 100 nM.

For the molecule `CCOc1ncc(F)c(N[C@H]2CC[C@@H](Oc3cc(N4CCOCC4)cc4nccnc34)CC2)n1` [Compound 607], the inhibition constant Ki is under 100 nM.

`CCOc1cc(N[C@H]2CC[C@@H](Oc3cc(N4CCOCC4)cc4nccnc34)CC2)nc(C)n1` [Compound 644] showed a Ki of under 100 nM.

A word on the Ki: it is the equilibrium dissociation constant of an inhibitor or competing ligand from its target. Low values mean higher affinity, high ones lower affinity.
